In patent US20160022872A1, “CELL-BASED COMPOSITIONS, CELL-BASED BANDAGE DEVICES AND SYSTEMS AND METHODS OF TREATMENT THEREWITH” (UNIVERSITY OF PITTSBURGH-OF THE COMMONWEALTH SYSTEM OF …, priority 2013, published 2016):
Entries after “also recorded” stand apart in the source; their conditions may differ. Like-named read-outs stand apart in the source and are kept apart here.

How the values were obtained:
MSC [1] = assay: inverted centrifugation assay of MSC adhesiveness on coated surfaces; format: cell-based, human; conditions: 2 hours post-seeding
Experimental: Tenascin-C or TNC may reduce the number of focal adhesions and decrease cell adhesiveness in several cell types. To test for MSC adhesiveness on TNC, an inverted centrifugation assay was performed 2 hours post-seeding MSC on […] and the number of cells attached after centrifugation was compared to number of cells attached on a similarly coated surface that had not undergone centrifugation. […] To increase adhesiveness of cells on TNC we coated mixed Collagen I, a matrix naturally occurring in the in vivo bone environment and one that promotes MSC attachment and spreading, in a 1:1 ratio with TNC for coating substrates. […] In a number of studies hereof, a combination of Collagen I and TNC was used to increase TNC adherence to cells.

MSC [2] = assay: MSC differentiation on coated surfaces (Von Kossa staining, adipocyte formation); format: cell-based, human
Description: We then studied whether TNC by itself, in the absence of specific differentiation cues, promotes MSC differentiation. We examined osteoblast or adipose cell formation from MSC grown on TNC and Collagen (Col I), in the presence of either proliferation or differentiation media. […] The matrix mix of TNC and Collagen I also did it interfere with differentiation.

imhMSC and prhMSC [3] = conditions: for cell death / caspase3 activation (FLICA): FasL or CHX and FasL, 8 hours (imhMSC) or 12 hours (prhMSC); for toxic effect on MSC (caspase3 activation without FasL): MSC on Collagen I and TNC, no FasL; for effect on survival advantage of TNC and Collagen I in the presence of FasL: prhMSC on Collagen I and TNC, inhibitor 30 minutes prior to and during 8 hours FasL
Experimental: MSCs are most susceptible to cell death via the Fas death pathway. […] Cells were also treated with a low concentration of the protein synthesis inhibitor cycloheximide (CHX) in addition to FasL. Cycloheximide, being a protein synthesis inhibitor, increases cell stress, imitating the starvation stress seen in vivo in a wound setting.
After preparation of coated surfaces and prior to seeding of MSC, neutralizing antibodies to the EGFL and FNL domains were added for 24 hours Immortalized hMSC were then seeded for 24 hours, kept treated or untreated with FasL for 8 hours, followed by a FLICA assay to test for caspase3 activation.
We next studied whether TNC contributes to survival of MSCs by sequestering FasL and prevention of FasL from binding its receptor Fas on MSC. We grew MSCs inside two cloning cylinders placed in wells of a 6-well dish, enclosing areas without any ECM, or with Collagen I and TNC, on which imhMSC were grown. One well had Collagen I and TNC coating surrounding the cloning cylinders, covered with media and FasL. The second well had only media with FasL surrounding the cloning cylinders, with no TNC.
The inhibitors were present during the entire 8 hours of FasL treatment, after which a FLICA assay was performed.

Erk = assay: immunofluorescence for phospho-Erk; format: cell-based, human; conditions: imhMSC, 0, 30 and 60 minutes
Experimental: We examined that of Erk Immortalized hMSC were plated on surfaces with Collagen I alone or Collagen I and TNC for 24 hours. After 24 hours, (considered 0 minute), immunofluorescence for phospho-Erk (green fluorescence) was tested either with or without the EGFR inhibitor PD153035.

MSC [4] = assay: flow cytometric quantification of FITC/HLA+ cells, MSC survival in wound bed; format: in vivo, mouse; conditions: days 3, 7 and 21; WT and KO mice
Description: Male and Female FVB (Friend Virus B-Type) and C57BL/6 mice, between 7-9 weeks of age, were used in a number of studies. After shaving the hair on the back of the mice, 8 mm punch biopsies were created. Wounds were either left untreated or treated with commercially available NEW-SKIN® (a liquid bandage or wound protective barrier available from J&J of New Brunswick, N.J.), PEG-Polymer, PEG-Polymer+TNC, or PEG-Polymer+TNC−MSC. […]
Flow cytometric quantification of FITC/HLA+cells was used to detect MSC survival in the wound bed. […]
After shaving the hair on the back of the mice 8 mm punch biopsies were created. […] Animals were euthanized by CO2 inhalation and the wounds assessed. […] Each wound was measured and then removed from the animal, with unwounded skin taken from the contralateral dorsum as a control.
Flow Cytometry. Twelve-millimeter punch biopsies of the wound and 12-mm punch biopsies of unwounded regions were isolated for quantification of MSC engraftment in wounded skin at days 3, 7, 14, and 21. […] Flow cytometry was performed on an LSR II Cytometer (a flow cytometer system available from BD Biosciences of Franklin Lakes, N.J.) and subsequently analyzed using FOWJO® digital FACS software (available from Tree Star, Inc. of Ashland, Oreg.).

EGFR = assay: immunofluorescence for phospho-EGFR and EEA1; format: cell-based, human
Experimental: Upon determining that TNC provided a survival effect on MSC in the presence of FasL, and that this mapped to the EGFL, we studied if Tenascin C was able to activate EGFR on the surface of MSC and if this activation was sustained. MSCs have low levels of EGFR, which may limit activation by the ultra-low affinity EGFL. In a number of studies, immortalized hMSC were plated on surfaces with Collagen I alone or Collagen I and TNC for 24 hours. After 24 hours, (considered 0 minute), immunofluorescence for phospho-EGFR (red fluorescence) and the early endosome marker EEA1 (green fluorescence) was done on these samples. […] Immortalized hMSC seeded on Collagen I were treated with EGF, the prototypal EGFR ligand, known to cause EGFR internalization for 15, 30 and 60 minutes prior to fixation, to induce phosphorylation of EGFR. At the same time points, immunofluorescence was done on cells grown on Collagen I and TNC.

imhMSC and prhMSC [5] = assay: MSC proliferation on extracellular matrix coatings; format: cell-based, human; conditions: 96 hours post-seeding
Description: During wound healing, endogenous MSC proliferation and differentiation are temporally distinct events. […] We tested if the extracellular matrix or ECM factors had any influence on MSC proliferation.

## TNC: the matrikine tenascin C, containing EGF-like and fibronectin like repeats
MSC [1]
  MSC adhesiveness: detach from surfaces after inverted centrifugation; also recorded: only half as adhesive as cells on Collagen I
MSC [2]; in the presence of adipogenic inducers
  adipocyte formation: did not prevent adipocyte formation
MSC [2]; in the presence of differentiation media
  osteogenic differentiation: did not interfere with osteogenic differentiation
MSC [2]; on its own, no inducers
  adipocyte formation: did not promote adipocyte formation on its own
imhMSC and prhMSC [3]
  cell death / caspase3 activation (FLICA): did not show caspase3 activation
imhMSC and prhMSC [3]; cloning cylinder experiment, imhMSC
  sequestering or neutralizing of FasL: neither sequestering nor neutralizing FasL
imhMSC and prhMSC [3]; dose response, TUNEL and FLICA staining
  optimal TNC coating to promote MSC survival in the presence of FasL: 1 Lg/cm2
Erk
  phospho-Erk activation: activate phosho-Erk in MSC at 0, 30 and 60 minutes
MSC [4]
  MSC survival in wound bed over time: survive more and longer

## O=c1cc(N2CCOCC2)oc2c(-c3ccccc3)cccc12 [LY294002, reference compound]
imhMSC and prhMSC [3]
  toxic effect on MSC (caspase3 activation without FasL): did not have a toxic effect on cells

## EGF: the prototypal EGFR ligand, known to cause EGFR internalization
EGFR; imhMSC, 15, 30 and 60 minutes
  phospho-EGFR staining over time: stained positive for phospho-EGFR after 15 minutes of treatment; also recorded: very little phospho-EGFR signal

## COc1cc2ncnc(Nc3cccc(Br)c3)c2cc1OC [PD153035, reference compound]
imhMSC and prhMSC [3]
  toxic effect on MSC (caspase3 activation without FasL): did not have a toxic effect on cells
  effect on survival advantage of TNC and Collagen I in the presence of FasL: blocked the survival advantage
Erk
  phospho-Erk activation: reduced but not completely inhibited

## Collagen I: a matrix naturally occurring in the in vivo bone environment that promotes MSC attachment and spreading
imhMSC and prhMSC [5]
  MSC proliferation relative to cell numbers initially plated: promote both imhMSC and prhMSC proliferation
MSC [2]; 30 days in proliferation media
  hydroxyapatite deposition (Von Kossa staining): neither Collagen I by itself nor TNC and Collagen I caused hydroxyapatite deposition
imhMSC and prhMSC [3]
  cell death / caspase3 activation (FLICA): did not show protection
imhMSC and prhMSC [3]; listed as Collagen I alone
  cell death / caspase3 activation (FLICA): showed caspase 3 activation
EGFR; imhMSC, 24 hours after plating (0 minute)
  phospho-EGFR staining: did not show phospho-EGFR staining
Erk
  phospho-Erk activation: significantly less than that with TNC

## COc1cccc(-c2cc(=O)c3ccccc3o2)c1N [PD98059, reference compound]
imhMSC and prhMSC [3]
  toxic effect on MSC (caspase3 activation without FasL): did not have a toxic effect on cells
  effect on survival advantage of TNC and Collagen I in the presence of FasL: blocked the survival advantage
